Reference: the NIST ThermoML archive (doi:10.1016/j.jct.2016.09.026)

How the values were obtained:
[1] = Crystal; DTA
[2] = molar heat capacity at constant pressure; conditions: 101.33 kPa, Small sample (50 mg) DSC
[3] = Molar enthalpy of transition or fusion; conditions: Crystal; DSC
[4] = molar enthalpy of vaporization or sublimation; conditions: 381.12 K; Liquid; Static calorimetry

CCCCCCC(=O)c1ccc(O)cc1 [1-(4-hydroxyphenyl)-1-heptanone]
Conditions	Molar enthalpy of transition or fusion [kcal/mol]	Normal melting temperature [°C]	molar enthalpy [kcal/mol]
[1]	–	92	–
[3]	7.5	–	–
[4]	–	–	24.2

[2]
Conditions	molar heat capacity at constant pressure [J/K/mol]
288.67 K, Crystal	291
289.17 K, Crystal	292.2
289.67 K, Crystal	289.9
290.17 K, Crystal	290.9
290.68 K, Crystal	292.7
291.18 K, Crystal	295
291.68 K, Crystal	296.8
292.18 K, Crystal	295.6
292.69 K, Crystal	295.3
293.19 K, Crystal	296.8
293.69 K, Crystal	295
294.19 K, Crystal	297.4
294.69 K, Crystal	297.4
295.19 K, Crystal	296.8
295.69 K, Crystal	301
296.19 K, Crystal	302.3
296.7 K, Crystal	300.1
297.2 K, Crystal	300.6
297.7 K, Crystal	300.7
298.2 K, Crystal	300.2
298.7 K, Crystal	303
299.2 K, Crystal	302.5
299.7 K, Crystal	304.8
300.2 K, Crystal	307.5
300.7 K, Crystal	306.2
301.2 K, Crystal	305.9
301.7 K, Crystal	306.8
302.2 K, Crystal	306.5
302.7 K, Crystal	307.3
303.2 K, Crystal	308.7
303.7 K, Crystal	307.9
304.2 K, Crystal	309.2
304.7 K, Crystal	311.7
305.2 K, Crystal	310
305.7 K, Crystal	309.6
306.2 K, Crystal	311.9
306.7 K, Crystal	312.9
307.2 K, Crystal	311.4
307.7 K, Crystal	311.2
308.2 K, Crystal	310.6
308.7 K, Crystal	313.4
309.2 K, Crystal	314
309.7 K, Crystal	314.4
310.2 K, Crystal	315.8
310.7 K, Crystal	314.9
311.2 K, Crystal	316.7
311.7 K, Crystal	318
312.2 K, Crystal	317.3
312.7 K, Crystal	318.1
313.2 K, Crystal	319.2
313.7 K, Crystal	320.9
314.2 K, Crystal	320.5
314.7 K, Crystal	319.8
315.2 K, Crystal	319.7
315.7 K, Crystal	323.3
316.2 K, Crystal	322.8
316.7 K, Crystal	323.2
317.2 K, Crystal	324
317.7 K, Crystal	323.8
318.2 K, Crystal	325.7
318.7 K, Crystal	324.1
319.2 K, Crystal	327.1
319.7 K, Crystal	327.1
320.2 K, Crystal	324.7
320.7 K, Crystal	327.1
321.2 K, Crystal	328.9
321.7 K, Crystal	328.9
322.2 K, Crystal	330.3
322.7 K, Crystal	329.6
323.2 K, Crystal	331.2
323.7 K, Crystal	332
324.2 K, Crystal	330.5
324.7 K, Crystal	331.9
325.2 K, Crystal	333.5
325.7 K, Crystal	333.6
326.2 K, Crystal	334.4
326.7 K, Crystal	335
327.2 K, Crystal	335.2
327.7 K, Crystal	334.1
328.2 K, Crystal	335
328.7 K, Crystal	337.4
329.2 K, Crystal	336.3
329.7 K, Crystal	338.1
330.2 K, Crystal	338.7
330.7 K, Crystal	337.8
331.2 K, Crystal	338.5
331.7 K, Crystal	339.5
332.2 K, Crystal	340.3
332.7 K, Crystal	342.3
333.2 K, Crystal	341.3
333.7 K, Crystal	342.1
334.2 K, Crystal	343.3
334.7 K, Crystal	343.6
335.2 K, Crystal	343.9
335.7 K, Crystal	346.5
336.2 K, Crystal	344.9
336.7 K, Crystal	346.6
337.2 K, Crystal	346.4
337.7 K, Crystal	346.9
338.2 K, Crystal	349.4
338.7 K, Crystal	347.8
339.19 K, Crystal	348.2
339.69 K, Crystal	348.7
340.2 K, Crystal	350.4
340.7 K, Crystal	352.5
341.2 K, Crystal	350.7
341.7 K, Crystal	350.7
342.2 K, Crystal	351.4
342.7 K, Crystal	351.7
343.19 K, Crystal	353.4
343.69 K, Crystal	353.1
344.19 K, Crystal	353.4
344.69 K, Crystal	356.8
345.19 K, Crystal	357
345.69 K, Crystal	355.2
346.19 K, Crystal	357.3
346.69 K, Crystal	357.3
347.19 K, Crystal	358.3
347.69 K, Crystal	359.2
348.19 K, Crystal	360.3
348.69 K, Crystal	361.6
349.19 K, Crystal	362.4
349.69 K, Crystal	360.9
350.19 K, Crystal	361.8
350.69 K, Crystal	363.3
351.19 K, Crystal	364.3
351.69 K, Crystal	363.9
352.19 K, Crystal	363.4
352.69 K, Crystal	366
353.19 K, Crystal	365.4
353.69 K, Crystal	368.2
354.19 K, Crystal	369.3
354.69 K, Crystal	370
355.19 K, Crystal	372.4
355.69 K, Crystal	375.2
356.19 K, Crystal	373.6
356.69 K, Crystal	374.5
357.19 K, Crystal	374.8
357.69 K, Crystal	380
358.19 K, Crystal	380.1
358.69 K, Crystal	381.4
359.19 K, Crystal	382.3
359.69 K, Crystal	387
360.19 K, Crystal	391.3
360.69 K, Crystal	393.9
361.19 K, Crystal	397.9
361.69 K, Crystal	403.5
362.19 K, Crystal	413.1
362.69 K, Crystal	424.4
363.19 K, Crystal	446.7
370.2 K, Liquid	458.6
370.7 K, Liquid	460.1
371.19 K, Liquid	461.4
371.69 K, Liquid	461.5
372.19 K, Liquid	463.4
372.69 K, Liquid	462.1
373.19 K, Liquid	464.1
373.69 K, Liquid	465.7
374.19 K, Liquid	465.5
374.69 K, Liquid	467.4
375.19 K, Liquid	464.3
375.69 K, Liquid	466.6
376.19 K, Liquid	466.5
376.69 K, Liquid	466.6
377.19 K, Liquid	467.5
377.69 K, Liquid	468.1
378.19 K, Liquid	470.5
378.69 K, Liquid	469.8
379.19 K, Liquid	468.2
379.69 K, Liquid	471.2
380.19 K, Liquid	470
380.69 K, Liquid	474
381.19 K, Liquid	473.3
381.69 K, Liquid	474
382.19 K, Liquid	470.5
382.69 K, Liquid	473.3
383.19 K, Liquid	472.6
383.69 K, Liquid	473.7
384.19 K, Liquid	474.9
384.69 K, Liquid	477.4
385.19 K, Liquid	480
385.69 K, Liquid	481.1
386.19 K, Liquid	482.1
386.69 K, Liquid	479
